US10745382B2 (BRISTOL-MYERS SQUIBB COMPANY, priority 2015, dated 2020)

Molecular target: T1, PD-1/PD-L1 (Homo sapiens, UniProt Q9NZQ7)
T1 construct: made in house; host or cells: HEK293T
Experiment: PD-1/PD-L1 Homogenous Time-Resolved Fluorescence (HTRF) binding assay
Settings: PD-L1-His 10 nM, PD-1-Ig 20 nM; value given as range class; read-out: Range or IC50
In short: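 Detection by europium cryptate anti-Ig plus APC anti-His (1 nM and 20 nM final) with HTRF signal. Buffer was dPBS, 0.1% BSA, 0.05% Tween-20.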

T1 sequence (Q9NZQ7 with tags, fused parts or gaps): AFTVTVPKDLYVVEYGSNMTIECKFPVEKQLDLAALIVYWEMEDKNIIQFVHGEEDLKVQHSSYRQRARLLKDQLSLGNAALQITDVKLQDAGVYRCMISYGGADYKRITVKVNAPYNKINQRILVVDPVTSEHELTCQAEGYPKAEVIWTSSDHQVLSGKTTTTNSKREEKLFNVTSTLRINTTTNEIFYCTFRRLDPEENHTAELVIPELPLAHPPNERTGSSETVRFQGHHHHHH

SMILES | IC50
Cc1c(COc2cc(OCc3cncc(C#N)c3)c(CN[C@](C)(CO)C(=O)O)cc2Cl)cccc1-c1cccc(OCCCNC(CO)CO)c1Cl [Example 2038, (R)-2-((5-chloro-4-((2′-chloro-3′-(3-((1,3-dihydroxypropan-2-yl)amino)propoxy)-2-methyl-[1,1′-biphenyl]-3-yl)methoxy)-2-((5-cyanopyridin-3-yl)methoxy)benzyl)amino)-3-hydroxy-2-methylpropanoic Acid] | 0.21 to 10 nM
Cc1c(COc2cc(OCc3cncc(C#N)c3)c(CO)cc2Cl)cccc1-c1cccc(OCCCNC(CO)CO)c1Cl [Example 2039, 5-((4-chloro-5-((2′-chloro-3′-(3-((1,3-dihydroxypropan-2-yl)amino)propoxy)-2-methyl-[1,1′-biphenyl]-3-yl)methoxy)-2-(hydroxymethyl)phenoxy)methyl)nicotinonitrile] | 0.21 to 10 nM
Cc1c(COc2cc(OCc3cncc(C#N)c3)c(CN[C@](C)(CO)C(=O)O)cc2Cl)cccc1-c1cccc(OCCCNC(CO)(CO)CO)c1Cl [Example 2040, (R)-2-((5-chloro-4-((2′-chloro-3′-(3-((1,3-dihydroxy-2-(hydroxymethyl)propan-2-yl)amino)propoxy)-2-methyl-[1,1′-biphenyl]-3-yl)methoxy)-2-((5-cyanopyridin-3-yl)methoxy)benzyl)amino)-3-hydroxy-2-methylpropanoic Acid] | 0.21 to 10 nM
Cc1c(COc2cc(OCc3cncc(C#N)c3)c(CO)cc2Cl)cccc1-c1cccc(OCCCNC(CO)(CO)CO)c1Cl [Example 2041, 5-((4-chloro-5-((2′-chloro-3′-(3-((1,3-dihydroxy-2-(hydroxymethyl)propan-2-yl)amino)propoxy)-2-methyl-[1,1′-biphenyl]-3-yl)methoxy)-2-(hydroxymethyl)phenoxy)methyl)nicotinonitrile] | 10 to 100 nM
Cc1c(COc2cc(OCc3cncc(C#N)c3)c(CNC(CO)CO)cc2Cl)cccc1-c1cccc(OCCCNC(CO)CO)c1Cl [Example 2042, 5-((4-chloro-5-((2′-chloro-3′-(3-((1,3-dihydroxypropan-2-yl)amino)propoxy)-2-methyl-[1,1′-biphenyl]-3-yl)methoxy)-2-(((1,3-dihydroxypropan-2-yl)amino)methyl)phenoxy)methyl)nicotinonitrile] | 0.21 to 10 nM
Cc1c(COc2cc(OCc3cncc(C#N)c3)c(CN[C@](C)(CO)C(=O)O)cc2Cl)cccc1-c1cccc(OCCCN2CCCC(CO)C2)c1Cl (stereo partly drawn) [Example 2043, (2R)-2-((5-chloro-4-((2′-chloro-3′-(3-(3-(hydroxymethyl)piperidin-1-yl)propoxy)-2-methyl-[1,1′-biphenyl]-3-yl)methoxy)-2-((5-cyanopyridin-3-yl)methoxy)benzyl)amino)-3-hydroxy-2-methylpropanoic Acid] | 0.21 to 10 nM
Cc1c(COc2cc(OCc3cncc(C#N)c3)c(CO)cc2Cl)cccc1-c1cccc(OCCCN2CCCC(CO)C2)c1Cl (stereo not shown) [Example 2044, 5-((4-chloro-5-((2′-chloro-3′-(3-(3-(hydroxymethyl)piperidin-1-yl)propoxy)-2-methyl-[1,1′-biphenyl]-3-yl)methoxy)-2-(hydroxymethyl)phenoxy)methyl)nicotinonitrile] | 0.21 to 10 nM
N#Cc1cncc(COc2cc(OCc3cccc(-c4cccc(OCCCN5CCCCC5)c4Cl)c3Cl)c(Cl)cc2CN2CCCC[C@H]2C(=O)O)c1 [Example 2045, (S)-1-(5-chloro-2-((5-cyanopyridin-3-yl)methoxy)-4-((2,2′-dichloro-3′-(3-(piperidin-1-yl)propoxy)-[1,1′-biphenyl]-3-yl)methoxy)benzyl)piperidine-2-carboxylic Acid] | 0.21 to 10 nM
N#Cc1cncc(COc2cc(OCc3cccc(-c4cccc(OCCCN5CCCCC5)c4Cl)c3Cl)c(Cl)cc2CO)c1 [Example 2046, 5-((4-chloro-5-((2,2′-dichloro-3′-(3-(piperidin-1-yl)propoxy)-[1,1′-biphenyl]-3-yl)methoxy)-2-(hydroxymethyl)phenoxy)methyl)nicotinonitrile] | 0.21 to 10 nM
CC(=O)NC1CCN(CCCOc2cccc(-c3cccc(COc4cc(OCc5cncc(C#N)c5)c(CN5CCCC[C@H]5C(=O)O)cc4Cl)c3Cl)c2Cl)C1 (stereo partly drawn) [Example 2047, (2S)-1-(4-((3′-(3-(3-acetamidopyrrolidin-1-yl)propoxy)-2,2′-dichloro-[1,1′-biphenyl]-3-yl)methoxy)-5-chloro-2-((5-cyanopyridin-3-yl)methoxy)benzyl)piperidine-2-carboxylic Acid] | 0.21 to 10 nM
Cc1c(COc2cc(OCc3cncc(C#N)c3)c(CN[C@](C)(CO)C(=O)O)cc2Cl)cccc1-c1cccc(OCCCNC[C@H](O)CO)c1Cl [Example 2048, (R)-2-((5-chloro-4-((2′-chloro-3′-(3-(((S)-2,3-dihydroxypropyl)amino)propoxy)-2-methyl-[1,1′-biphenyl]-3-yl)methoxy)-2-((5-cyanopyridin-3-yl)methoxy)benzyl)amino)-3-hydroxy-2-methylpropanoic Acid] | 0.21 to 10 nM
N#Cc1cncc(COc2cc(OCc3cccc(-c4cccc(OCCCNC[C@H](O)CO)c4Cl)c3Cl)c(Cl)cc2CN2CCCC[C@H]2C(=O)O)c1 [Example 2049, (S)-1-(5-chloro-2-((5-cyanopyridin-3-yl)methoxy)-4-((2,2′-dichloro-3′-(3-(((S)-2,3-dihydroxypropyl)amino)propoxy)-[1,1′-biphenyl]-3-yl)methoxy)benzyl)piperidine-2-carboxylic Acid] | 0.21 to 10 nM
Cc1c(COc2cc(OCc3cncc(C#N)c3)c(CNC(CO)CO)cc2Cl)cccc1-c1cccc(OCCCN(C)C[C@H](O)CO)c1Cl [Example 2050, (S)-5-((4-chloro-5-((2′-chloro-3′-(3-((2,3-dihydroxypropyl)(methyl)amino)propoxy)-2-methyl-[1,1′-biphenyl]-3-yl)methoxy)-2-(((1,3-dihydroxypropan-2-yl)amino)methyl)phenoxy)methyl)nicotinonitrile] | 0.21 to 10 nM
Cc1c(COc2cc(OCc3cncc(C#N)c3)c(CNC(CO)CO)cc2Cl)cccc1-c1cccc(OCCCN2CCCCC2)c1Cl [Example 2051, 5-((4-chloro-5-((2′-chloro-2-methyl-3′-(3-(piperidin-1-yl)propoxy)-[1,1′-biphenyl]-3-yl)methoxy)-2-(((1,3-dihydroxypropan-2-yl)amino)methyl)phenoxy)methyl)nicotinonitrile] | 0.21 to 10 nM
CC(=O)NC1CCN(CCCOc2cccc(-c3cccc(COc4cc(OCc5cncc(C#N)c5)c(CNC(CO)CO)cc4Cl)c3C)c2Cl)C1 (stereo not shown) [Example 2052, N-(1-(3-((2-chloro-3′-((2-chloro-5-((5-cyanopyridin-3-yl)methoxy)-4-(((1,3-dihydroxypropan-2-yl)amino)methyl)phenoxy)methyl)-2′-methyl-[1,1′-biphenyl]-3-yl)oxy)propyl)pyrrolidin-3-yl)acetamide] | 0.21 to 10 nM
CC(CO)(CO)NCc1cc(Cl)c(OCc2cccc(-c3cccc(OCCCN4CC[C@@H](O)C4)c3Cl)c2Cl)cc1OCc1cncc(C#N)c1 [Example 2053, (R)-5-((4-chloro-5-((2,2′-dichloro-3′-(3-(3-hydroxypyrrolidin-1-yl)propoxy)-[1,1′-biphenyl]-3-yl)methoxy)-2-(((1,3-dihydroxy-2-methylpropan-2-yl)amino)methyl)phenoxy)methyl)nicotinonitrile] | 0.21 to 10 nM
CC(CO)(CO)NCc1cc(Cl)c(OCc2cccc(-c3cccc(OCCCNC[C@H](O)CO)c3Cl)c2Cl)cc1OCc1cncc(C#N)c1 [Example 2054, (S)-5-((4-chloro-5-((2,2′-dichloro-3′-(3-((2,3-dihydroxypropyl)amino)propoxy)-[1,1′-biphenyl]-3-yl)methoxy)-2-(((1,3-dihydroxy-2-methylpropan-2-yl)amino)methyl)phenoxy)methyl)nicotinonitrile] | 0.21 to 10 nM
CC(CO)(CO)NCc1cc(Cl)c(OCc2cccc(-c3cccc(OCCCN4CC[C@@H](O)C4)c3Cl)c2Cl)cc1OCc1cc(C#N)ccc1F [Example 2055, (R)-3-((4-chloro-5-((2,2′-dichloro-3′-(3-(3-hydroxypyrrolidin-1-yl)propoxy)-[1,1′-biphenyl]-3-yl)methoxy)-2-(((1,3-dihydroxy-2-methylpropan-2-yl)amino)methyl)phenoxy)methyl)-4-fluorobenzonitrile] | 0.21 to 10 nM
Cc1c(COc2cc(OCc3cncc(C#N)c3)c(CNC(CO)CO)cc2Cl)cccc1-c1cccc(OCCCN2CCC(O)(C(=O)O)CC2)c1Cl [Example 2056, 1-(3-((2-chloro-3′-((2-chloro-5-((5-cyanopyridin-3-yl)methoxy)-4-(((1,3-dihydroxypropan-2-yl)amino)methyl)phenoxy)methyl)-2′-methyl-[1,1′-biphenyl]-3-yl)oxy)propyl)-4-hydroxypiperidine-4-carboxylic Acid] | 0.21 to 10 nM
Cc1c(COc2cc(OCc3cncc(C#N)c3)c(CN(C)C(CO)CO)cc2Cl)cccc1-c1cccc(OCCCNC[C@H](O)CO)c1Cl [Example 2057, (S)-5-((4-chloro-5-((2′-chloro-3′-(3-((2,3-dihydroxypropyl)amino)propoxy)-2-methyl-[1,1′-biphenyl]-3-yl)methoxy)-2-(((1,3-dihydroxypropan-2-yl)(methyl)amino)methyl)phenoxy)methyl)nicotinonitrile] | 0.21 to 10 nM
C[C@](CO)(NCc1cc(Cl)c(OCc2cccc(-c3cccc(OCCCN4CCCCC4)c3Cl)c2Cl)cc1OCc1cncc(C#N)c1)C(=O)O [Example 2058, (R)-2-((5-chloro-2-((5-cyanopyridin-3-yl)methoxy)-4-((2,2′-dichloro-3′-(3-(piperidin-1-yl)propoxy)-[1,1′-biphenyl]-3-yl)methoxy)benzyl)amino)-3-hydroxy-2-methylpropanoic Acid] | 0.21 to 10 nM
CC(CO)(CO)NCc1cc(Cl)c(OCc2cccc(-c3cccc(OCCCN4CC[C@@H](O)C4)c3Cl)c2Cl)cc1OCc1cccc(C#N)c1 [Example 2059, (R)-3-((4-chloro-5-((2,2′-dichloro-3′-(3-(3-hydroxypyrrolidin-1-yl)propoxy)-[1,1′-biphenyl]-3-yl)methoxy)-2-(((1,3-dihydroxy-2-methylpropan-2-yl)amino)methyl)phenoxy)methyl)benzonitrile] | 0.21 to 10 nM
